Measurements reported in PMC7261172, “Peptides containing the PCNA interacting motif APIM bind to the β-clamp and inhibit bacterial growth and mutagenesis” (Nucleic Acids Research, 2020).

Assays:
S.epidermidis (MRSE) = assay type: cell-based, Staphylococcus epidermidis; details: 24 h
Protocol: (§1) Briefly, bacterial suspension in Mueller-Hinton Broth was adjusted to 0.5 McFarland and diluted to 5 × 10^5 CFU/ml. The suspension (0.1 ml) was seeded in polypropylene microtiter plates (Greiner), 5 × 10^4 CFU/well. APIM-peptides were added as 10% of the total volume. Initial inoculums were quantified by seeding on agar for verification of the estimated CFU/mL. After 24 hours (h) incubation at 37°C, the microtiter plates were inspected for visible growth.

E. coli BL21 = assay type: cell-based, Escherichia coli; details: Mueller-Hinton Broth, 5 × 10^5 CFU/ml, 24 h, 37°C; average of ≥3 independent biological experiments
Protocol: as §1

E. coli MG1655 [1] = assay type: cell-based, Escherichia coli; details: Mueller-Hinton Broth, 5 × 10^5 CFU/ml, 24 h, 37°C; average of ≥3 independent biological experiments
Protocol: as §1

[2] = system: clinical isolates of multidrug-resistant S. epidermidis; assay: Inhibition of growth (OD600) of clinical isolates; assay type: cell-based, Staphylococcus epidermidis; details: most sensitive clinical isolate (isolate 1); same molar concentration as the full-length RWLVK-peptide; Figure 1B
Protocol: Growth experiments were performed in Luria-Bertani broth (LB) media, Tryptic soy broth (TSB) or LB agar at 37°C, antibiotic selections were performed using the following concentrations: kanamycin 30 μg/ml, chloramphenicol 34 μg/ml and rifampicin 100 μg/ml.

E.coli β-clamp = target: T1, E.coli β-clamp (Escherichia coli, UniProt P0A988); assay: Microscale thermophoresis (MST) β-clamp binding; details: cell penetrating peptides, MST buffer with 2% fetal bovine serum, initial in vitro binding experiments, bounds given
T1 construct: made in house
T1 sequence (P0A988 whole entry): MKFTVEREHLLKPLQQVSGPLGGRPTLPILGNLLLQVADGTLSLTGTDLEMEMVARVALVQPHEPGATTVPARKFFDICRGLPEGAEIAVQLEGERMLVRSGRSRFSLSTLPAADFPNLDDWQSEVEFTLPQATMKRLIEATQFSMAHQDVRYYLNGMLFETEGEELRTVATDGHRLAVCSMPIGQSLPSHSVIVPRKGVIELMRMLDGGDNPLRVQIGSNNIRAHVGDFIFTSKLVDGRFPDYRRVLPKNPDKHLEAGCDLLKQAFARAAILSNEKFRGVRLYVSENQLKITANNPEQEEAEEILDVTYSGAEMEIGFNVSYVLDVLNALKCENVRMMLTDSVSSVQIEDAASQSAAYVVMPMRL
Protocol: Purified E.coli β-clamp ([49]) was labeled using the RED-Maleimide Labelling Kit (NanoTemper Technologies, GmbH) according to the manufacturer's instructions applying a concentration of 20 μM protein at room temperature. The ligands, cell penetrating APIM-peptides, were dissolved and diluted in supplemented Microscale thermophoresis (MST) buffer (50 mM Tris–HCl pH 7.5, 150 mM NaCl, 10 mM MgCl2) with 2% fetal bovine serum and incubated for 10 min in room temperature. Series of 1:1 dilutions (16×), producing ligand concentrations ranging from 500 μM to 15 nM, were made. Each ligand solution was further diluted 1:1 with fluorescent labeled β-clamp (diluted in MST buffer, 3 nM) and incubated for 10 min. Fluorescence was measured for each protein-ligand sample using a Monolith NT.115 instrument (20% MST power and 100% LED power) and Monolith NT Standard Treated Capillaries (both NanoTemper Technologies, GmbH). To calculate the KD’s, fluorescence signals were plotted and analyzed using the supplemented software (NT Analysis software version 1.5.41 and MO.affinity analysis version 2.2.4, NanoTemper Technologies). Denaturation with SD-buffer (4% sodium dodecyl sulphate and 40 mM DTT) and re-measurement of total fluorescence confirmed that the observed change in fluorescence was due to ligand binding event.

E. coli MG1655 cells = assay: Replication assay (flow cytometry of DNA content, Rif/Cpx run-out); assay type: cell-based, Escherichia coli; details: up to 15 μM peptide (above MIC), then Rif and Cpx run-out
Protocol: E. coli MG1655 cells were grown at 37°C in glucose-CAA medium (AB minimal medium ([46]) supplemented with 10 μg/ml thiamine, 0.2% glucose and 0.5% casamino acids) for several generations to ensure balanced growth. At an OD600 = 0.15, the cells were added 2, 4 or 6 μM RWLVK* peptide or 2, 4, 6 or 15 μM R11 peptide. Growth was continued for 2–5 min. After peptide treatment, cells were either harvested directly or treated with rifampicin (Rif) (300 μg/ml) and cephalexin (Cpx) (10 μg/ml) for the time equivalent of three to four generations before harvesting. Both directly harvested and Rif and Cpx treated cells were re-suspended in TE buffer (10 mM Tris–HCl, pH 8.0, 1 mM EDTA, pH 8.0) and fixed in 70% ethanol. Fluorescein isothiocyanate (FITC, Sigma-Aldrich) ([47]) was used for protein staining (representing mass), and Hoechst 33258 was used for DNA staining (Sigma-Aldrich) ([48]). Flow cytometry was performed with an LSR-II flow cytometer equipped with a 488 nm argon-ion laser and a 355 nm krypton laser (BD Biosciences), and the results were analyzed using FlowJo software (Tree Star, Inc.). Rif and Cpx inhibit the initiation of replication and cell division, respectively. Cells cannot initiate a new round of replication after these drugs are added but can complete ongoing rounds of replication (without dividing). […]

E. coli MG1655 [3] = assay: Rif^R mutagenicity assay, added cell penetrating peptides; assay type: cell-based, Escherichia coli; details: spontaneous; for Mutation frequency, added peptides: E. coli MG1655, cell penetrating peptide 20 μM, average ± SEM, RWLVK n = 11, RFSLK n = 4, RWLK n = 7, R11 n = 5, control 10.5 ± 2.2
Protocol: (§2) The rifampicin resistance (Rif^R) mutagenicity assay was performed as described in ([50]) with some modifications. Briefly, E. coli BL21 expressing peptide variants were induced with (IPTG) (1 mM) at OD600 = 0.3–0.4 and cultured at 37°C, for 2 h before harvested. Bacteria from large culture volumes (up to 50 ml) were plated in order to obtain ∼100 Rif^R colonies per dish. The anti-mutagenic effect of cell penetrating APIM-peptides in E. coli MG1655 was done by adding 20 μM peptide at OD600 = 0.01, and the cells were cultured for 30 min. Next, the cells were pelleted and washed with PBS before UV-irradiated in (50 μl) PBS (2 mJ UVC/cm^2), re-suspended in 2.5 ml LB and cultured in 37°C for 2 h before plating on LB plates with and without Rif (100 μg/ml). The number of Rif^R colonies/ total CFU was determined after 1 and 2 days, respectively. Significance was calculated by using a two-tailed, paired, students t-test. Gentamicin resistance (Gen^R) was examined using a gentamicin sensitive clinical isolate of S. epidermidis. […] The cultures were grown in a shaking incubator (37°C) and were re-inoculated (1:100) every 24 h in fresh TSB and supplements. The cultures were plated on blood agar plates with and without gentamicin (10 mg/l) every day for 4 days, and the frequency of Gen^R colonies was determined by calculating the number of Gen^R colonies/total CFU.

[4] = system: gentamicin sensitive clinical isolate of S. epidermidis; assay: Gentamicin resistance (Gen^R) mutation frequency assay; assay type: cell-based, Staphylococcus epidermidis; details: peptide 3 μM, 4 days, daily re-inoculation 1:100 in TSB, n≥ 4; Figure 4B
Protocol: as §2

MRSA 43484 = assay: Murine skin wound infection model; details: topical
Protocol: The experimental procedure is modified from a previously described skin infection model in mice ([52]). A total of 32 Balb/C female mice (18–22 g, Taconic, Denmark) were used for the experiment. The mice were treated orally with analgesia, 45 μl Nurofen®junior (Novartis 20 mg/ml ∼30 mg/kg), 30–60 min before the experiment. The mice were anesthetized with 0.15 ml diluted Zoletil mix (2 ml Zoletil mix + 5.2 ml sterile saline + 2.8 ml Torbugesix 1:100) before the fur was removed on a 2 × 3 cm area of the back with an electric shaver and a razor. At last, a skin lesion was made on each mouse with a dermal curette (Miltex 335710). A total of 10 μl inoculum containing 10^7 CFU MRSA 43484 (in saline) was added to a 1 cm^2 area of the skin lesion of each mouse. One group of animals (six mice) were sacrificed 1 day after inoculation, before any treatment was given, to quantify the inoculum. The remaining mice were given topical treatment twice a day (9 a.m and 3 p.m) for 3 days; APIM-peptide (RFSLK, Innovagen SE, 12.8 mg/ml in 1% methyl cellulose gel containing 10% glycerol) or Fusidic acid 2% ointment (LeoPharma). A volume of 50 μl was used for each treatment, spread out on the skin lesion. […] The treated animals and the control group were sacrificed on day 4, one day after the last treatment. […]

| Molecule | Minimal Inhibitory Concentration (MIC) S.epidermidis (MRSE) (S.epidermidis (MRSE)) [µM] | Minimal Inhibitory Concentration (MIC) E. coli BL21 (E. coli BL21) [µM] | Minimal Inhibitory Concentration (MIC) E. coli MG1655 (E. coli MG1655 [1]) [µM] | Inhibition of growth (OD600), % of untreated parallel [2] | KD for the β-clamp (MST) (E.coli β-clamp) | Inhibition of DNA replication (E. coli MG1655 cells) | Effect of added cell penetrating peptide on the mutation frequency (E. coli MG1655 [3]; E. coli MG1655, 20 μM) | Mutation frequency, added peptides (E. coli MG1655 [3]) | Kd (E.coli β-clamp; read-out: KD for the β-clamp (MST)) [µM] | Mutation frequency (Gen^R/10^8 CFU) compared to the control, peptide alone [4] | Bacterial load in the infected lesions (CFU/skin lesion) on day 4 (MRSA 43484; 50 μl twice a day for 3 days, 12.8 mg/ml (3.5 mM) in 1% methyl cellulose gel with 10% glycerol, compared to controls, Figure 5) | Toxicity of the APIM-peptide gel (MRSA 43484; twice a day for 3 days, mice) |
| --- | --- | --- | --- | --- | --- | --- | --- | --- | --- | --- | --- | --- |
| N=C(N)NCCC[C@H](NC(=O)[C@H](CCCNC(=N)N)NC(=O)[C@H](CCCNC(=N)N)NC(=O)[C@H](CCCNC(=N)N)NC(=O)[C@H](CCCNC(=N)N)NC(=O)[C@H](CCCNC(=N)N)NC(=O)[C@H](CCCNC(=N)N)NC(=O)[C@H](CCCNC(=N)N)NC(=O)[C@H](CCCNC(=N)N)NC(=O)[C@H](CCCNC(=N)N)NC(=O)[C@@H](N)CCCNC(=N)N)C(N)=O [R11, reference compound] | 12 | 11 | 14.5 | no effect | no binding was detected | did not have any effect | did not affect the mutation frequency | 7.2 ± 3.9 Rif^R/10^8 CFU |  |  |  |  |
| Ac-MDRFSLKWKKKRKIRRRRRRRRRRR-NH2 [RFSLK] | 3 | 4 | 7.5 |  |  |  |  | 4.1 ± 1.6 * Rif^R/10^8 CFU | < 50 | did not change the mutation frequency | significantly reduced the bacterial load | no toxicity |
